According to US20220370416A1, “COMPOUNDS AND METHODS FOR TARGETED DEGRADATION OF KRAS” (Arvinas Operations, Inc., priority 2020, published 2022):

Experiments:
HiBit-KRAS^G12C [1] = biological target: T1, HiBit-KRAS^G12C (Homo sapiens, UniProt P01116, G12C); experiment: HiBit degradation assay in MiaPaCa-2 HiBit-KRas^G12C cells; format: cell-based; details: 24 hours; for Dmax: MIA PaCa-2, MiaPaCa-2 HiBit-KRas^G12C cells, maximum degradation; for DC50: MiaPaCa-2 HiBit-KRas^G12C cells
Procedure, shortened: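 DC50 and Dmax come from 4-parameter fits of DMSO-normalized HiBit luminescence after 24 hours' exposure at 37° C to 10 μM–20 nM compound in 0.1% or 0.5% DMSO. Cells: MiaPaCa-2 carrying one endogenously HiBit-tagged KRAS^G12C allele; concentrations causing ≥50% […] viability loss (alamar blue) excluded.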

HiBit-KRAS^G12C [2] = biological target: T1, HiBit-KRAS^G12C; experiment: HiBit degradation assay in SW1573 HiBit-KRas^G12C cells; format: cell-based; set-up: expressed in transfected cells; host or cells: SW1573 (clone E6), modified pcDNA3.1 vector, TK promoter; details: 24 hours; for Dmax: SW1573, SW1573 HiBit-KRas^G12C; for DC50: SW1573 HiBit-KRas^G12C
Procedure, shortened: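 HiBit-KRAS G12C degradation was measured after a 24 h compound exposure (titrated 10 μM–20 nM) in engineered SW1573 cells. Lytic HiBit luminescence, expressed relative to DMSO controls, yielded DC50 and Dmax from 4-parameter fits. Concentrations causing ≥50% loss in alamar blue viability were omitted as cytotoxic.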

[3] = 0.1% DMSO, read-out: KRas^G12C-HiBiT (MiaPaCa; 0.1% DMSO) DMax
[4] = 0.5% DMSO, read-out: KRas^G12C-HiBiT (MiaPaCa; 0.5% DMSO) DMax
[5] = 0.1% DMSO, read-out: KRas^G12C-HiBit (SW1573; 0.1% DMSO) Dmax**
[6] = 0.5% DMSO, read-out: KRas^G12C-HiBiT (SW1573; 0.5% DMSO) Dmax**
[7] = 0.1% DMSO, read-out: KRas^G12C-HIBit (SW1573; 0.1% DMSO) DC50*
[8] = read-out: KRas^G12C-HiBiT (MiaPaCa; 0.1% DMSO) IC50, 0.1% DMSO
[9] = read-out: KRas^G12C-HiBiT (MiaPaCa; 0.5% DMSO) IC50, 0.5% DMSO
[10] = read-out: KRas^G12C-HiBiT (SW1573; 0.5% DMSO) IC50***, 0.5% DMSO

T1 sequence (P01116 1-186 isoform P01116-2 G12C limits assumed): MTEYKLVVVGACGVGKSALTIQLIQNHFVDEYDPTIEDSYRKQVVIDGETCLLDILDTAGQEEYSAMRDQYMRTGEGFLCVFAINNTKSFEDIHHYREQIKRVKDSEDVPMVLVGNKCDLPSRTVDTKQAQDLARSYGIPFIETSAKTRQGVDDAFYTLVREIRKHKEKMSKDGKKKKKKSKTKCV

Row | Structure (SMILES) | Dmax (HiBit-KRAS^G12C [1]; [3]) [%] | Dmax (HiBit-KRAS^G12C [1]; [4]) [%] | Dmax (HiBit-KRAS^G12C [2]; [5]) [%] | Dmax (HiBit-KRAS^G12C [2]; [6]) [%] | DC50 (HiBit-KRAS^G12C [2]; [7]) [nM] | DC50 (HiBit-KRAS^G12C [1]; [8]) [nM] | DC50 (HiBit-KRAS^G12C [1]; [9]) [nM] | DC50 (HiBit-KRAS^G12C [2]; [10]) [nM]
1 | C=CC(=O)N1CCN(c2nc(O[C@H](C)CN3CCC(CCOCC(=O)N[C@H](C(=O)N4C[C@H](O)C[C@H]4C(=O)N[C@@H](C)c4ccc(-c5scnc5C)cc4)C(C)(C)C)CC3)nc3c(F)c(-c4cc(O)cc5ccccc45)c(Cl)cc23)CC1 [Compound 68, (2S,4R)-1-[(2S)-2-[2-(2-{1-[(2R)-2-{[6-chloro-8-fluoro-7-(3-hydroxynaphthalen-1-yl)-4-[4-(prop-2-enoyl)piperazin-1-yl]quinazolin-2-yl]oxy}propyl]piperidin-4-yl}ethoxy)acetamido]-3,3-dimethylbutanoyl]-4-hydroxy-N-[(1S)-1-[4-(4-methyl-1,3-thiazol-5-yl)phenyl]ethyl]pyrrolidine-2-carboxamide] | < 35 | 35 to 70 | 35 to 70 | 35 to 70 | 100 to 1000 | – | – | –
2 | C=CC(=O)N1CCN(c2nc(O[C@H](C)CN3CCC(OCCOCCOCCOc4cc(-c5scnc5C)ccc4CNC(=O)[C@@H]4C[C@@H](O)CN4C(=O)[C@H](c4cc(C)no4)C(C)C)CC3)nc3c(F)c(-c4cc(O)cc5ccccc45)c(Cl)cc23)CC1 [Compound 69, (2S,4R)-N-{[2-(2-{2-[2-({1-[(2R)-2-{[6-chloro-8-fluoro-7-(3-hydroxynaphthalen-1-yl)-4-[4-(prop-2-enoyl)piperazin-1-yl]quinazolin-2-yl]oxy}propyl]piperidin-4-yl}oxy)ethoxy]ethoxy}ethoxy)-4-(4-methyl-1,3-thiazol-5-yl)phenyl]methyl}-4-hydroxy-1-[(2S)-3-methyl-2-(3-methyl-1,2-oxazol-5-yl)butanoyl]pyrrolidine-2-carboxamide] | – | – | 35 to 70 | – | 100 to 1000 | > 1000 | – | –
3 | C=CC(=O)N1CCN(c2nc(O[C@H](C)CN3CCC(OCCOc4cc(-c5scnc5C)ccc4CNC(=O)[C@@H]4C[C@@H](O)CN4C(=O)[C@H](c4cc(C)no4)C(C)C)CC3)nc3c(F)c(-c4cc(O)cc5ccccc45)c(Cl)cc23)CC1 [Compound 77, (2S,4R)-N-({2-[2-({1-[(2R)-2-{[6-chloro-8-fluoro-7-(3-hydroxynaphthalen-1-yl)-4-[4-(prop-2-enoyl)piperazin-1-yl]quinazolin-2-yl]oxy}propyl]piperidin-4-yl}oxy)ethoxy]-4-(4-methyl-1,3-thiazol-5-yl)phenyl}methyl)-4-hydroxy-1-[(2S)-3-methyl-2-(3-methyl-1,2-oxazol-5-yl)butanoyl]pyrrolidine-2-carboxamide] | < 35 | – | < 35 | – | 100 to 1000 | – | – | –
4 | C=CC(=O)N1CCN(c2nc(O[C@H](C)CN3CCC(OCCOCC(=O)N[C@H](C(=O)N4C[C@@H](O)C[C@H]4C(=O)N[C@@H](C)c4ccc(-c5scnc5C)cc4)C(C)(C)C)CC3)nc3c(F)c(-c4cc(O)cc5ccccc45)c(Cl)cc23)CC1 [Compound 82, (2S,4S)-1-[(2S)-2-{2-[2-({1-[(2R)-2-{[6-chloro-8-fluoro-7-(3-hydroxynaphthalen-1-yl)-4-[4-(prop-2-enoyl)piperazin-1-yl]quinazolin-2-yl]oxy}propyl]piperidin-4-yl}oxy)ethoxy]acetamido}-3,3-dimethylbutanoyl]-4-hydroxy-N-[(1S)-1-[4-(4-methyl-1,3-thiazol-5-yl)phenyl]ethyl]pyrrolidine-2-carboxamide] | 35 to 70 | 35 to 70 | 35 to 70 | < 35 | > 1000 | – | – | –
5 | C=CC(=O)N1CCN(c2nc(OC[C@@H]3C[C@@H](OCCOc4cc(-c5scnc5C)ccc4CNC(=O)[C@@H]4C[C@@H](O)CN4C(=O)[C@H](c4cc(C)no4)C(C)C)CN3C)nc3c2CCN(c2cccc4ccccc24)C3)C[C@@H]1CC#N [Compound 89, (2S,4R)-N-{[2-(2-{[(3R,5S)-5-[({4-[(3S)-3-(cyanomethyl)-4-(prop-2-enoyl)piperazin-1-yl]-7-(naphthalen-1-yl)-5H,6H,7H,8H-pyrido[3,4-d]pyrimidin-2-yl}oxy)methyl]-1-methylpyrrolidin-3-yl]oxy}ethoxy)-4-(4-methyl-1,3-thiazol-5-yl)phenyl]methyl}-4-hydroxy-1-[(2S)-3-methyl-2-(3-methyl-1,2-oxazol-5-yl)butanoyl]pyrrolidine-2-carboxamide] | – | – | 35 to 70 | – | 100 to 1000 | > 1000 | > 1000 | > 1000
6 | C=CC(=O)N1CCN(c2nc(OC[C@@H]3CCN(CCCOCC(=O)N[C@H](C(=O)N4C[C@H](O)C[C@H]4C(=O)N[C@@H](C)c4ccc(-c5scnc5C)cc4)C(C)(C)C)C3)nc3c(F)c(-c4cc(O)cc5ccccc45)c(Cl)cc23)C[C@@H]1CC#N [Compound 95, (2S,4R)-1-[(2S)-2-(2-{3-[(3R)-3-[({6-chloro-4-[(3S)-3-(cyanomethyl)-4-(prop-2-enoyl)piperazin-1-yl]-8-fluoro-7-(3-hydroxynaphthalen-1-yl)quinazolin-2-yl}oxy)methyl]pyrrolidin-1-yl]propoxy}acetamido)-3,3-dimethylbutanoyl]-4-hydroxy-N-[(1S)-1-[4-(4-methyl-1,3-thiazol-5-yl)phenyl]ethyl]pyrrolidine-2-carboxamide] | – | > 70 | – | > 70 | – | – | > 1000 | 100 to 1000
7 | C=CC(=O)N1CCN(c2nc(OCCN3CCC(COC4(C(=O)N[C@H](C(=O)N5C[C@H](O)C[C@H]5C(=O)N[C@@H](C)c5ccc(-c6scnc6C)cc5)C(C)(C)C)CC4)CC3)nc3c(F)c(-c4cc(O)cc5ccccc45)c(Cl)cc23)C[C@@H]1CC#N [Compound 96, (2S,4R)-1-[(2S)-2-{[1-({1-[2-({6-chloro-4-[(3S)-3-(cyanomethyl)-4-(prop-2-enoyl)piperazin-1-yl]-8-fluoro-7-(3-hydroxynaphthalen-1-yl)quinazolin-2-yl}oxy)ethyl]piperidin-4-yl}methoxy)cyclopropyl] formamido}-3,3-dimethylbutanoyl]-4-hydroxy-N-[(1S)-1-[4-(4-methyl-1,3-thiazol-5-yl)phenyl]ethyl]pyrrolidine-2-carboxamide] | – | > 70 | – | > 70 | – | – | 100 to 1000 | < 100
8 | C=CC(=O)N1CCN(c2nc(OCCN3CCC(COCC(=O)N[C@H](C(=O)N4C[C@@H](O)C[C@H]4C(=O)N[C@@H](C)c4ccc(-c5scnc5C)cc4)C(C)(C)C)CC3)nc3c(F)c(-c4cccc5cccc(C)c45)c(Cl)cc23)C[C@@H]1CC#N [Compound 97] | – | – | – | > 70 | – | – | > 1000 | > 1000
9 | C=CC(=O)N1CCN(c2nc(OCCN3CCC(COCC(=O)N[C@H](C(=O)N4C[C@H](O)C[C@H]4C(=O)N[C@@H](C)c4ccc(-c5scnc5C)cc4)C(C)(C)C)CC3)nc3c(F)c(-c4nc(NC)cc(C)c4C(F)(F)F)c(Cl)cc23)C[C@@H]1CC#N [Compound 98, (2S,4R)-1-[(2S)-2-[2-({1-[2-({6-chloro-4-[(3S)-3-(cyanomethyl)-4-(prop-2-enoyl)piperazin-1-yl]-8-fluoro-7-[4-methyl-6-(methylamino)-3-(trifluoromethyl)pyridin-2-yl]quinazolin-2-yl}oxy)ethyl]piperidin-4-yl}methoxy)acetamido]-3,3-dimethylbutanoyl]-4-hydroxy-N-[(1S)-1-[4-(4-methyl-1,3-thiazol-5-yl)phenyl]ethyl]pyrrolidine-2-carboxamide] | – | > 70 | – | > 70 | – | – | 100 to 1000 | 100 to 1000
